Laboratory results: patent publication US7951805B2, “Heterocyclic derivatives and their use as mediators of stearoyl-CoA desaturase” (Xenon Pharmaceuticals Inc., priority 2004, dated 2011)

Structure (SMILES) | melting point
Cl.O=C(NCCCC1CC1)c1ccc(N2CCC(Nc3ccccc3C(F)(F)F)CC2)nn1 | 117 to 121 °C
Cl.O=C(NCCCC1CC1)c1ccc(N2CCC(Nc3ccc(F)cc3C(F)(F)F)CC2)nn1 | 143 to 147 °C
O=C(NCCCC1CC1)c1ccc(N2CCC(N3C(=O)C(F)(F)c4ccccc43)CC2)nn1 | 51 to 53 °C

Further lines, results first:

melting point | Structure (SMILES)
158 to 163 °C | Cl.O=C(NCCC1CC1)c1ccc(N2CCC(Nc3ccccc3C(F)(F)F)CC2)nn1
134 to 137 °C | Cl.O=C(NCCC1CC1)c1ccc(N2CCC(Nc3ccc(F)cc3C(F)(F)F)CC2)nn1
136 to 139 °C | CCCCCNC(=O)c1ccc(N2CCC(Nc3ccc(F)cc3C(F)(F)F)CC2)nn1.Cl
